The results in this text go back to patent US20050222130A1, “Inhibitors of RhoA kinase production/activation for relaxing the features of and/or for decontracting the skin” (L'OREAL, priority 2004, published 2005).

The test deals with dermal equivalent comprising a collagen matrix seeded with normal human fibroblasts. In words: Spontaneous contraction of attached dermal equivalent (dermo-decontracting effect). Type of test: cell-based. Particulars: for inhibition of contraction of the dermal equivalent (in words): different concentrations. From the text: The principle of this test entails studying the dermo-decontracting effect of (R)(+)-trans-N-(4-pyridyl)-4-(1-aminoethyl)cyclohexanecarboxamide dihydrochloride (Y-27632) on a model of dermal equivalent comprising a collagen matrix seeded with normal human fibroblasts. These conditions are intended to mimic in vitro the dermal contractile phenomena that take place during facial expressions. Under these conditions, specifically, the cells spontaneously express tensile forces that induce a retraction of the collagen gel. […] Measurement of this area makes it possible to evaluate the relaxation effects of substances placed in contact beforehand with the dermal equivalent. Four series of 3 attached dermal equivalents containing normal human fibroblasts are prepared: a control series without any treatment, and three series treated with (R)(+)-trans-N-(4-pyridyl)-4-(1-aminoethyl)cyclohexanecarboxamide dihydrochloride at different concentrations. The experiment is repeated three times. The dermal equivalents are prepared as described in Asselineau et al., Exp. Cell. Res. 1985, 159, 536-539; Models in Dermatology, 1987, Vol. 33, pp. 1-7, in the following proportions: [table] The treated dermal equivalent differs from the control dermal equivalent in that variable amounts of (R)(+)-trans-N-(4-pyridyl)-4-(1-aminoethyl)cyclohexanecarboxamide dihydrochloride are added thereto. The collagen used is type I collagen (commercial solution), but a collagen of type III or IV may also be used. It is extracted from rat tails or from calf skin by acidic hydrolysis and stored in acidic medium at +4° C.; it naturally polymerizes on heating to 37° C. and on reducing the level of acidity. The collagen is predialyzed against successive baths of water+acetic acid. The protocol is as follows: 1.76×MEM medium in the presence of additives (1% glutamine, 1% nonessential amino acids, 1% sodium pyruvate, 1% fungizone and 1% penicillin/streptomycin), foetal calf serum and 0.1 N NaOH are introduced into a sterile flask tube. The fibroblasts isolated from human skin explants are then added at a concentration of 1.4×10^5 cells per 1 ml of culture medium. A volume/volume mixture of collagen in acetic acid to 1/1000 is then added slowly, against the wall of the tube so as to observe the appearance of a whitish cloud. The whole is then mixed cautiously and distributed in the wells of a 12-well culture plate (of the type Costar reference 3512) at a rate of 0.5 ml of mixture per cm^2. The culture plate is then placed in an incubator at 37° C. with 5% CO2. Once formed after polymerization of the collagen, the dermal equivalents are left adhering to the culture support for 3 days and then detached from the support in order for the contraction to be able to start. These attached dermal equivalents are removed from the incubator for the taking of the images to measure their surface area, for each point of the contraction kinetics (0, 4, 8 and 24 hours). They are immediately returned to the incubator between each measuring point. The evaluation of the spontaneous contraction of the treated dermal equivalents (treated with (R)(+)-trans-N-(4-pyridyl)-4-(1-aminoethyl)cyclohexanecarboxamide dihydrochloride) and control dermal equivalents (without (R)(+)-trans-N-(4-pyridyl)-4-(1-aminoethyl)cyclohexanecarboxamide) is performed by measuring their surface area, at different times after the start of the spontaneous contraction. To do this, a digital image is acquired for each treated or untreated dermal equivalent using a camera (Sony DXC-107P CCD-Iris camera) and the area is then calculated on each image using an image analysis system (Zeiss Axiovision 3.0). […]

Setting [1] is: 0.1 μM, 4 hours after detaching from support.
The mark [2] stands for this setting: 0.1 μM, 8 hours after detaching from support.
Setting [3] is: 0.1 μM, 24 hours after detaching from support.
[4] abbreviates: 1 μM, 4 hours after detaching from support.
Where [5] appears, read: 1 μM, 8 hours after detaching from support.
Where [6] appears, read: 1 μM, 24 hours after detaching from support.

Molecules are shown by their SMILES.

For `O=S(=O)(c1cccc2cnccc12)N1CCCNCC1` [1-(5-isoquinolinesulfonyl)homopiperazine], the “inhibition of contraction of the dermal equivalent (in words)” value is “dose-dependent inhibition of contraction”. Besides, the “reduction of percentage of contraction relative to the control” value under setting [1] is given as 2.6%. Moreover, the “reduction of percentage of contraction relative to the control” value under setting [2] is reported as 2.4%. Moreover, the “reduction of percentage of contraction relative to the control” value under setting [3] is 1.5%. Further, under setting [4], the “reduction of percentage of contraction relative to the control” value is on record as 8%. Moreover, the “reduction of percentage of contraction relative to the control” value under setting [5] is listed as 9.5%. For the same compound, the “reduction of percentage of contraction relative to the control” value under setting [6] came out at 8.2%. Further, where the note is “5 μM, 4 hours after detaching from support”, the “reduction of percentage of contraction relative to the control” value is on record as 17%. The “reduction of percentage of contraction relative to the control” value (5 μM, 8 hours after detaching from support) was found to be 19.4%. For the same compound, the “reduction of percentage of contraction relative to the control” value (5 μM, 24 hours after detaching from support) amounted to 22.2%. Further, for the setting “same concentrations”, the “effectiveness compared with Y-27632 at the same concentrations” value was “less effective than”.

On to `C[C@@H](N)[C@H]1CC[C@H](C(=O)Nc2ccncc2)CC1.Cl.Cl` [(R)(+)-trans-N-(4-pyridyl)-4-(1-aminoethyl)cyclohexanecarboxamide dihydrochloride], for which the “reversibility of the inhibition of contraction” value is recorded as “reversible” and the “inhibition of contraction of the dermal equivalent (in words)” value is given as “dose-dependent inhibition of contraction”. For the same compound, under setting [1], the “reduction of percentage of contraction relative to the control” value turned out to be 6.1%. The “reduction of percentage of contraction relative to the control” value under setting [2] stood at 6.4%. Besides, the “reduction of percentage of contraction relative to the control” value under setting [3] stood at 7.2%. Also, the “reduction of percentage of contraction relative to the control” value under setting [4] amounted to 20.6%. In addition, under setting [5], the “reduction of percentage of contraction relative to the control” value is recorded as 24.4%. Besides, under setting [6], the “reduction of percentage of contraction relative to the control” value turned out to be 29.3%.
